The values that follow come from US12351571B2, “Substituted quinoxaline compounds as inhibitors of FGFR tyrosine kinases” (ARRAY BIOPHARMA INC., priority 2018, dated 2025).

As a reminder, the IC50 is the midpoint of a concentration-inhibition curve.

One assay deals with phosphorylated FGFR3 (Homo sapiens (Human), UniProt P22607). The assay is described as follows: FGFR Enzyme Binding Assay (HTRF tracer displacement), FGFR3. Conditions: 5 nM phosphorylated FGFR3, 60 minute incubation at 22° C.; read-out: FGFR3 Enz Binding IC50. The procedure: The potency of compounds inhibiting human isoforms of FGFR kinase was determined using Life Technologies' Homogeneous Time Resolved Fluorescence (HTRF)-based binding assay technology. An incubation was conducted with either 5 nM dephosphorylated FGFR1 (Array Biopharma, p1702; SEQ ID NO: 1, amino acids 458 to 765, dephosphorylated by co-expression with PTP1b (protein tyrosine phosphatase 1B)), 5 nM dephosphorylated FGFR2 (Life Technologies, Cat. No. PV4106 that had been dephosphorylated with Lambda protein phosphatase (New England Biolabs, cat #P0753)) or 5 nM phosphorylated FGFR3 (Array Biopharma, p1836; SEQ ID NO: 5, amino acids 449 to 759), 50 nM Kinase Tracer 236 (Life Technologies Cat. No. PR9078A), 2 nM Biotin-anti-6HIS (Life Technologies Cat. No. PV6090) and 2 nM Europium-Streptavidin (Life Technologies Cat. No. PV6025) along with test compound in a buffer consisting of 50 mM HEPES ((4-(2-hydroxyethyl)-1-piperazineethanesulfonic acid, pH 7.5), 5 mM MgCl2, 0.005% Triton X-100, 1 mM DTT, 1 mM NaVO4 and 2% DMSO in a final volume of 12 μL Compounds were typically prepared as a 3-fold or 4-fold serial dilution in DMSO and added to the assay to give the appropriate final concentration. After a 60 minute incubation at 22° C., the extent of tracer displacement was determined using a PerkinElmer EnVision multimode plate reader via HTRF dual wavelength detection, and the percent of control (POC) was calculated using a ratiometric emission factor. One hundred POC was determined using no test compound, and 0 POC was determined in the presence of 1 μM of an appropriate control inhibitor. A 4-parameter logistic curve was fit to the POC values as a function of the concentration of compound, and the IC50 value was the point where the best-fit curve crossed 50 POC.
Chain of phosphorylated FGFR3 (P22607 449-759): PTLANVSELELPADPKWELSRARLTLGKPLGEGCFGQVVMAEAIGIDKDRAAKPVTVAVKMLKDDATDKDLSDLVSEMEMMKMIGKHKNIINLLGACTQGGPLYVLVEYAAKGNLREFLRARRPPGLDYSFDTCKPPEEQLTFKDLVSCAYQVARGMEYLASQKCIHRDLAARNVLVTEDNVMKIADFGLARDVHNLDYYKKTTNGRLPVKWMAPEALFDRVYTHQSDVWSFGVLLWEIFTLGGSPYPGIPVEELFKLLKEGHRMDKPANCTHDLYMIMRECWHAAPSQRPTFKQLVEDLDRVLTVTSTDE
A general note: TR-FRET usually uses a lanthanide donor and a delayed reading to cut background.

Another assay addresses human wild type FGFR3 (Homo sapiens (Human), UniProt P22607). The assay is described as follows: FGFR3 pERK Cell Assay. The class given is cell-based. Conditions: HEK-293 cells, 1 hour compound, 100 ng/ml human FGF-acidic; maximum concentration 5 μM. The procedure: HEK-293 cells transfected with dox-inducible human wild type FGFR3 (SEQ ID NO: 5) were plated in a collagen or poly-D-lysine coated 96 well flat bottom plates at 4×10^5 cells/well in complete DMEM medium containing 10% FBS and 1 μg/ml doxycycline and allowed to attach for 24 h at 37° C., 5% CO2. Cells were treated with compound using 1:3 serial dilutions with a maximum final concentration of 5 μM. Compound was incubated on cells for 1 hour at 37° C., 5% CO2. Cells were then stimulated with a final concentration of 100 ng/ml human FGF-acidic (R&D Systems Cat number 232-FA/CF) for 5 minutes at 37° C., 5% CO2. Medium was removed, and cells were lysed with lysis buffer containing phosphatase and protease inhibitors. Phospho ERK1/2 was measured using the Meso Scale Discovery sandwich assay (Meso Scale Discovery cat. no. K151DWD). The assay captures phospho ERK1/2 and detects with a sulfo-tagged total ERK1/2 antibody. The chemiluminescent signal was read on the Sector Imager Plate reader. 100 POC was determined using no test compounds and 0 POC was determined using a control compound. The POC values were fit to a 4-parameter logistic curve as a function of the concentration of the compound, and the IC50 value is the point where the curve crosses 50 POC.

Another assay concerns the target FGFR3 (Homo sapiens (Human), UniProt P22607). Description: LC/MS FGFR3 kobs assay (covalent modification). Conditions: 500 nM FGFR3, 3 μM compound. The class given is biochemical. The procedure:
The LC/MS FGFR1 and FGFR3 kobs assays were conducted as follows. 500 nM FGFR1 (Array BioPharma construct p1702; SEQ ID NO: 1, amino acids 458-765) or FGFR3 (Array BioPharma construct p1700; SEQ ID NO: 5, amino acids 449-759) were incubated with 3 μM compound in 25 mM HEPES (4-(2-hydroxyethyl)-1-piperazineethanesulfonic acid), pH 7.4, 5 mM MgCl2, 150 mM NaCl, 0.5 mM TCEP (tris(2-carboxyethyl) phosphine), and 2% DMSO in a total volume of 20 μL. At each time point, the reaction was quenched with 20 μL of 0.4% formic acid. The extent of protein modification by each compound was determined by LC/MS on an Agilent Technologies 6520 Q-TOF LC/MS. Protein signals were then automatically deconvoluted using Agilent Masshunter software. Deconvoluted mass signals were exported to Tibco Spotfire data analysis program for further processing and normalization.
Data analysis included five steps. First, the signals for the “DMSO Controls” were analyzed to determine the percent of signal associated with unmodified FGFR1 or FGFR3 at each time point. Next, the percent of the signal associated with the covalent modification was determined. Third, the average nonmodified “DMSO Control” signal was used to normalize the modified protein signals at each time point. The percent of unmodified protein was fit to an exponential decay model where A0 is the Percent Unmodified at the start of the reaction, and kobs is the observed rate constant over the time period.

Assay [1] concerns the target recombinant human FGFR1 catalytic domain (Homo sapiens (Human), UniProt P11362). Description: FGFR Enzyme Activity Assay (LanthaScreen TR-FRET), FGFR1. The following applies: 15 μM ATP, 20 minutes incubation; read-out: FGFR1 Enz FRET IC50. Format: biochemical. The procedure: FGFR1 kinase activity was measured by the Invitrogen LanthaScreen™ Assay technology which directly measures the amount of substrate phosphorylation by Time-resolved fluorescence energy transfer (TR-FRET) using a flourescently-labeled peptide and Europium-labeled antibody. Briefly, 200 pM His-tagged recombinant human FGFR1 catalytic domain (amino acids 308-731) (Life Technologies Cat. No. PR4660A) was incubated with 100 nM Alexa Fluor® 647-Poly-GT Peptide Substrate (Life Technologies Cat. No. PV5836) and 15 μM ATP along with test compound in a buffer consisting of 250 mM HEPES, 25 mM MgCl2, 0.05% TritonX-100, pH 7.5, and 2% DMSO. Compounds were typically prepared in a threefold serial dilution in DMSO and added to the assay to give the appropriate final concentration. After a 20 minutes incubation at 22° C., an equal volume of 2 nM LanthaScreen® Eu-PY20 Antibody (Life Technologies Cat. No. PV5691) and 10 mM EDTA was added to quench the kinase reaction and start the detection reaction. After an additional 60 minute incubation at 22° C., the reaction was measured using a PerkinElmer EnVision multimode plate reader via TR-FRET dual wavelength detection, and the percent of control (POC) calculated using a ratiometric emission factor. 100 POC was determined using no test compounds and 0 POC was determined using no enzyme. The POC values were fit to a 4-parameter logistic curve as a function of the concentration of the compound, and the IC50 value is the point where the curve crosses 50 POC.

Chain of recombinant human FGFR1 catalytic domain (P11362 other isoform, or with tags, fused parts or gaps): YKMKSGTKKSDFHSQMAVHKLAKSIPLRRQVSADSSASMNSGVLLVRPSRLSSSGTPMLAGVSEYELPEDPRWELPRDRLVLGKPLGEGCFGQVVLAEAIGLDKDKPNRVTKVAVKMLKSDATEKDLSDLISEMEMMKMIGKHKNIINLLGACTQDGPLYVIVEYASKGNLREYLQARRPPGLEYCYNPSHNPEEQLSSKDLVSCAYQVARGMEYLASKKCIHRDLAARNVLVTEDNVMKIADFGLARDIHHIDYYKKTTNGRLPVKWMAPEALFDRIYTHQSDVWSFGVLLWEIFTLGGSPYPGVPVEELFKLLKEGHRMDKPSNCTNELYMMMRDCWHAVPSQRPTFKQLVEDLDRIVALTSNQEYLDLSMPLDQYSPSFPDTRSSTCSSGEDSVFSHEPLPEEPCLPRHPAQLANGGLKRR
Chain of human wild type FGFR3 (P22607 23-806): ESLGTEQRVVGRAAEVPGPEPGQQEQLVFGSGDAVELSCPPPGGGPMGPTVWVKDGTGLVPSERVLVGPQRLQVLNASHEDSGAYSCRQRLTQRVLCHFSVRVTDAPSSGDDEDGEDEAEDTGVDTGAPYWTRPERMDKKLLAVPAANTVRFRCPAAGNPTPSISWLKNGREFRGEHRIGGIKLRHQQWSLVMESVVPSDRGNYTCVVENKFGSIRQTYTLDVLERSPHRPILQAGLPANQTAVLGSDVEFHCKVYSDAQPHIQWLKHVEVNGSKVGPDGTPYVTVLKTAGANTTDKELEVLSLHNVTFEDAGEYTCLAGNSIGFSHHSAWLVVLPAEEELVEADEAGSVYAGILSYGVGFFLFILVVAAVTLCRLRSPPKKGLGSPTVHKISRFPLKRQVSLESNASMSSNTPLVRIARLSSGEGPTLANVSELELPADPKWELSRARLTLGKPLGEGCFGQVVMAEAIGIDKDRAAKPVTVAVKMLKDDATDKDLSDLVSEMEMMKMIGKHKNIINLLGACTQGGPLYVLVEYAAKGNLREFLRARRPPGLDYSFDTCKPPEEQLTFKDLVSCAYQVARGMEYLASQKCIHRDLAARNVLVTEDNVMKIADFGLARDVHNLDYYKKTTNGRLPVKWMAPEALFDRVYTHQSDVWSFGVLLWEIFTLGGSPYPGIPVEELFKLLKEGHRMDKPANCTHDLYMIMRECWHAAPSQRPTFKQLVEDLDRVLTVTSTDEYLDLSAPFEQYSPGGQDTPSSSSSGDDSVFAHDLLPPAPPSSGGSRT
Chain of FGFR3 (P22607 449-759): as the sequence (P22607 449-759) above

With `C=CC(=O)N1CC(F)(C(=O)N2CCN(c3ccc(-c4cnc5ccc(Nc6cc(OC)cc(OC)c6)cc5n4)cn3)CC2)C1` [Example 8, 1-(3-(4-(5-(7-((3,5-dimethoxyphenyl)amino)-quinoxalin-2-yl)pyridin-2-yl)piperazine-1-carbonyl)-3-fluoroazetidin-1-yl)-prop-2-en-1-one], the IC50 stood at 30 nM at phosphorylated FGFR3, 154 nM on human wild type FGFR3 and 831 nM in assay [1]. Also, the “FGFR3 Enz kobs” value at FGFR3 stood at 0.06319 min⁻¹.
The matching figures for `C=CC(=O)N1CC(O)(C(=O)N2CCC(n3cc(-c4cnc5ccc(Nc6cc(OC)cc(OC)c6)cc5n4)cn3)CC2)C1` [Example 26, 1-(3-(4-(4-(7-((3,5-dimethoxyphenyl)amino)quinoxalin-2-yl)-1H-pyrazol-1-yl)piperidine-1-carbonyl)-3-hydroxyazetidin-1-yl)prop-2-en-1-one]: 6 nM, 153 nM, 118 nM and 0.01414 min⁻¹.
The matching figures for `COc1cc(Nc2ccc3ncc(-c4cnn(C5CCN(C(=O)C6(C#N)CN(C(=O)/C=C/CN(C)C)C6)CC5)c4)nc3c2)cc(OC)c1` [Example 11, (E)-3-(4-(4-(7-((3,5-dimethoxyphenyl)amino)-quinoxalin-2-yl)-1H-pyrazol-1-yl)piperidine-1-carbonyl)-1-(4-(dimethyl-amino)but-2-enoyl)-azetidine-3-carbonitrile]: 3 nM, 19 nM, 44 nM and 0.1473 min⁻¹.
The matching figures for `COc1cc(Nc2ccc3ncc(-c4c(C)nn(C5CCN(C(=O)C6(F)CN(C(=O)/C=C/CN(C)C)C6)CC5)c4C)nc3c2)cc(OC)c1` [Example 23, (E)-1-(3-(4-(4-(7-((3,5-dimethoxyphenyl)amino)-quinoxalin-2-yl)-3,5-dimethyl-1H-pyrazol-1-yl)piperidine-1-carbonyl)-3-fluoroazetidin-1-yl)-4-(dimethylamino)but-2-en-1-one]: 13 nM, 699 nM, 5000 nM and 0.07588 min⁻¹.
For `COc1cc(Nc2ccc3ncc(-c4ccc(N5CCN(C(=O)C6(F)CN(C(=O)/C=C/CN(C)C)C6)CC5)nc4C)nc3c2)cc(OC)c1` [Example 13, (E)-1-(3-(4-(5-(7-((3,5-dimethoxyphenyl)amino)-quinoxalin-2-yl)-6-methylpyridin-2-yl)-piperazine-1-carbonyl)-3-fluoroazetidin-1-yl)-4-(dimethylamino)but-2-en-1-one], the results for the half-inhibitory concentration (IC50) (on phosphorylated FGFR3; in assay [1]) were 335 nM and 2150 nM, respectively. The “FGFR3 Enz kobs” value on FGFR3 is 0.02606 min⁻¹.
For `COc1cc(Nc2ccc3ncc(-c4cnn([C@@H]5CCN(C(=O)C6CN(C(=O)/C=C/CN(C)C)C6)C5)c4)nc3c2)cc(OC)c1` [Example 20, (R,E)-1-(3-(3-(4-(7-((3,5-dimethoxyphenyl)amino)-quinoxalin-2-yl)-1H-pyrazol-1-yl)pyrrolidine-1-carbonyl)azetidin-1-yl)-4-(dimethylamino)but-2-en-1-one], the concentration for half-maximal inhibition (IC50) is 5 nM at phosphorylated FGFR3, 2740 nM against human wild type FGFR3 and 194 nM in assay [1]. On FGFR3, the “FGFR3 Enz kobs” value was found to be 0.00892 min⁻¹.
For `C=CC(=O)N1CC(F)(C(=O)N2CCC(n3cc(-c4cnc5ccc(Nc6cc(OC)cc(OC)c6)cc5n4)cn3)CC2)C1` [Example 4, 1-(3-(4-(4-(7-((3,5-dimethoxyphenyl)amino)-quinoxalin-2-yl)-1H-pyrazol-1-yl)piperidine-1-carbonyl)-3-fluoro-azetidin-1-yl)prop-2-en-1-one], in that order: 3 nM, 20 nM, 89 nM and 0.03901 min⁻¹.
On to `C=CC(=O)N1CC(O)(C(=O)N2CCC(n3cc(-c4cnc5ccc(N(C)c6cc(OC)cc(OC)c6)cc5n4)cn3)CC2)C1` [Example 27, 1-(3-(4-(4-(7-((3,5-dimethoxyphenyl)(methyl)amino)quinoxalin-2-yl)-1H-pyrazol-1-yl)piperidine-1-carbonyl)-3-hydroxyazetidin-1-yl)prop-2-en-1-one], for which the IC50 on phosphorylated FGFR3 is 6 nM; at human wild type FGFR3, 12 nM; in assay [1] it was 10 nM. Further, the “FGFR3 Enz kobs” value on FGFR3 was determined as 0.00987 min⁻¹.
For `C=CC(=O)N1CC(C#N)(C(=O)N2CCC(n3cc(-c4cnc5ccc(Nc6cc(OC)cc(OC)c6)cc5n4)cn3)CC2)C1` [Example 12, 1-acryloyl-3-(4-(4-(7-((3,5-dimethoxyphenyl)-amino)quinoxalin-2-yl)-1H-pyrazol-1-yl)-piperidine-1-carbonyl)-azetidine-3-carbonitrile], in that order: 3 nM, 22 nM, 89 nM and 0.07246 min⁻¹.
Consider `C=CC(=O)N1CC(C(=O)N2CCN(c3cccc(-c4cnc5ccc(Nc6cc(OC)cc(OC)c6)cc5n4)c3)CC2)C1` [Example 25, 1-(3-(4-(3-(7-((3,5-dimethoxyphenyl)amino)-quinoxalin-2-yl)phenyl)-piperazine-1-carbonyl)-azetidin-1-yl)prop-2-en-1-one], for which the half-maximal inhibitory concentration (IC50) at phosphorylated FGFR3 came out at 327 nM; in assay [1], 1760 nM. The “FGFR3 Enz kobs” value at FGFR3 turned out to be 0.00369 min⁻¹.
